Earlier results in US20200397720A1, “METHOD AND FORMULATION FOR TREATMENT OF WOUNDS BY NEW TISSUE REGENERATION WITH REDUCED TRAUMA AND SCAR TISSUE FORMATION” (priority 2019, published 2020).

System: inflammatory cytokines, including IL-6 and TNF-α
Details: high fat diet-induced atherosclerosis in rabbits

## CC1=C(/C=C/C(C)=C/C=C/C(C)=C/C(=O)O)C(C)(C)CCC1 [ATRA, all-trans retinoic acid]
  effect on inflammatory cytokines, including IL-6 and TNF-α: lowering inflammatory cytokines
